Results on 27 molecules are retold here after patent US9012420B2, “Aptamer for chymase, and use thereof” (Ribomic Inc., priority 2009, dated 2015).

Oligonucleotides are written 5' to 3', each unit as a sugar letter and its base; * is a phosphorothioate linkage, no mark a phosphodiester; rarer units and linkages stand in square brackets, end groups in braces. Plain capitals give the bases only. r = 2'-OH (RNA); f = 2'-fluoro

For orientation: IC50 means the concentration that inhibits the measured activity by half.

The target of data set [1] is T1, chymase (recombinant, manufactured by SIGMA) (Homo sapiens, UniProt P23946).
T1 construct: purchased SIGMA; host or cells: yeast
T1 sequence (P23946 22-247): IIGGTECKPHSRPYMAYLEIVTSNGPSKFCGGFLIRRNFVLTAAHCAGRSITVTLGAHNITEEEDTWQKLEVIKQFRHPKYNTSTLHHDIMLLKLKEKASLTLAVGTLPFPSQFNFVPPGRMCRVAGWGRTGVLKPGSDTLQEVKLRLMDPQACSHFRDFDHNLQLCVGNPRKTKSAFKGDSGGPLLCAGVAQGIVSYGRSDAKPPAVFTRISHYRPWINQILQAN
In words: Surface plasmon resonance (Biacore T100), chymase immobilized on CM5 chip, nucleic acid injected as analyte. The class given is binding. The arrangement: key to Binding activity as determined using Biacore: ++: a sequence that binds to chymase significantly more strongly than the negative control 40N; +: a sequence that binds to chymase equivalently compared with the negative control 40N; key to binding activity using Biacore: ++: significant binding to chymase than SEQ ID NO: 58 which is a negative control; +: similar binding level as SEQ ID NO: 58 which is a negative control. As to conditions: for Binding activity as determined using Biacore: Table 4, about 4000 RU chymase immobilized, nucleic acid 0.3 μM, solution C, compared with 40N; for binding activity using Biacore: Table 5, same manner as Example 4, compared with SEQ ID NO: 58. How it is done: In another method, chymase is first immobilized onto a sensor chip, the amount immobilized being about 4000 RU. 20 μL of an aptamer solution for analyte, prepared at 0.01 μg/μL, is injected, and the binding of the aptamer to chymase is detected. An RNA containing a random nucleotide sequence of 30 or 40 nucleotides is used as a negative control.
Whether these nucleic acids bind to chymase was determined by the surface plasmon resonance method. Measurements were taken using Biacore T100 (manufactured by GE Healthcare) as described below. About 4000 RU of chymase (recombinant, manufactured by SIGMA) was immobilized on the sensor chip surface of a CM5 chip, using an amine coupling kit. 20 μL of each nucleic acid, prepared at 0.3 μM, as an analyte was injected at a flow rate of 20 μL/min. Solution C was used as a running buffer. The method of evaluation used was the same as Example 1.
All nucleic acids of SEQ ID NO: 58-68 were prepared by chemical synthesis. Whether these nucleic acids are bound to chymase was assessed by surface plasmon resonance method in the same manner as in Example 4. The inhibitory activity on chymase was measured in the same manner as in Example 3.
All nucleic acids of SEQ ID NOs: 73-79, 56(8), 80, 56(10), 81, 56(13)-56(14), 83-87 were prepared by chemical synthesis. Whether these nucleic acids are bound to chymase was assessed by surface plasmon resonance method in the same manner as in Example 4.
All nucleic acids of SEQ ID NO: 88-120, 121, 69, 122, 123, 70-72, 124-131 were prepared by chemical synthesis. Whether these nucleic acids are bound to chymase was assessed by surface plasmon resonance method in the same manner as in Example 4.
A general note: Surface plasmon resonance follows binding to a sensor surface in real time, without labels.

Data set [2] deals with T1, chymase (recombinant, manufactured by SIGMA). The data set can be described thus: Chymase inhibitory activity using synthetic substrate Suc-Ala-Ala-Pro-Phe-MCA. The format is biochemical. The conditions noted are these: same manner as Example 3. A digest of the protocol: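 Human recombinant chymase (16.7 nM or 1.67 nM final) preincubated 5 min at 37° C., then added to nucleic acid (0.0027–2 μM serial dilutions) and 100 μM substrate in solution C. AMC fluorescence (ex 380/em 460 nm) followed 5 or 30 min at 37° C.; slope gives initial velocity, inhibition versus no-inhibitor control yields IC50.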

For data set [3], the target named is T2, chymase (recombinant) (UniProt P23946 P23946:22-247).
T2 sequence: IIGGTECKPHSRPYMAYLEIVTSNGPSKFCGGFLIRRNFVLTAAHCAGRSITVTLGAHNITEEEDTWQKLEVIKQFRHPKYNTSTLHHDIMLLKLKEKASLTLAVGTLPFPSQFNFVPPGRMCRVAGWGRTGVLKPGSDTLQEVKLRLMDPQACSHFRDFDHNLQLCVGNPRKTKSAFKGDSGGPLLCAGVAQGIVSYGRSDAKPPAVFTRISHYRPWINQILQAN
The data set can be described thus: inhibition; SPR ++. The conditions noted are these: tags: SIGMA, expressed in yeast. How it is done:
Here, Suc is a protecting succinyl group, and MCA is a 4-methylcoumaryl-7-amide group; upon cleavage of the C-terminal side of phenylalanine, AMC (7-amino-4-methyl-coumarine) is released. By detecting the fluorescence of this AMC, the enzyme activity of chymase can be determined. The assay was performed using a 96-well plate (F16 Black Maxisorp Fluoronunc, manufactured by Nunc), with a reaction mixture volume of 100 μL, in solution C as a buffer solution. First, each nucleic acid was serially diluted to 0.0027-2 μM concentrations in solution C to obtain 50 μL solutions. After 10 μL of the 1 mM substrate prepared in solution C was added thereto, the plate was set to the microplate reader SpectraMax190 (manufactured by Molecular Devices Corporation), and incubated at 37° C. for 5 minutes. Separately, 0.05 μg (or 0.005 μg) of chymase (recombinant, manufactured by SIGMA) was diluted in solution C to obtain a 40 μL chymase solution, and incubated at 37° C. for 5 minutes. The chymase solution was added to the mixture of the nucleic acid and substrate to initiate an enzyme reaction. The final chymase concentration in the reaction mixture was 16.7 nM (or 1.67 nM), the final substrate concentration being 100 μM. The plate containing the reaction mixture was set to the microplate reader SpectraMax190 (manufactured by Molecular Devices Corporation), and examined for time-dependent changes in the fluorescence intensity at 37° C. for 5 minutes (or 30 minutes) (excitation wavelength 380 nm, detection wavelength 460 nm). A linear approximation of the increase in the fluorescence of the AMC released from the substrate by chymase activity was generated, and its slope was taken as the initial velocity […]. For control, samples were treated and analyzed in the same manner in two cases: use of a 30N or 40N (a nucleotide of 30 or 40 consecutive bases represented by N; N is A, G, C or T) nucleic acid pool (negative control), and use of chymostatin, a known chymotrypsin-like serine protease inhibitor (positive control). Taking the initial reaction velocity without the nucleic acid and inhibitor (V_0) as a 100% enzyme activity, the inhibitory rate of each test substance was calculated using the following equation: […]

[4] abbreviates: Table 4, mean value for 2 to 3 measurements.
[5] abbreviates: Table 5, mean value of two measurements.

With “49 (GGUUCUACAGAUAGAGAUAAAGUAGAACC; 2'-fluoro at CU, RNA at AG, backbone not given here) [compound 49]”, the “Binding activity as determined using Biacore” value in data set [1] is “++”. Further, in data set [2] (setting [4]), the IC50 worked out at 117 ± 66 nM.
As for “50 (GGCAUUCUACAGAUAGAGAUAAAGUAGAAUUUAAC; 2'-fluoro at CU, RNA at AG, backbone not given here) [compound 50]”, the “Binding activity as determined using Biacore” value in data set [1] is reported as “++”. In data set [2] (setting [4]), the IC50 came out at 138 ± 93 nM.
For “51 (CGUUACAUAAUGUAUAUACCAGGGUAACUAAACAUAGAAGAGCGG; 2'-fluoro at CU, RNA at AG, backbone not given here) [compound 51]”, in that order: “++” and 24 ± 9 nM.
For “52 (CCGUAUAUACCAGGGUAACUAAACGG; 2'-fluoro at CU, RNA at AG, backbone not given here) [compound 52]” the same measures were “+” and above 1000 nM.
For “57 (GCAUUUGAGAUAGAUUUAAACAAACGC; 2'-fluoro at CU, RNA at AG, backbone not given here) [compound 57]”, in that order: “++” and 99 ± 13 nM.
In the case of “59 (GGGUUAGAUAGAGAUAAAAACCC; 2'-fluoro at CU, RNA at AG, backbone not given here) [compound 59]”, the “binding activity using Biacore” value in data set [1] was “++”. In addition, the IC50 in data set [2] (setting [5]) came out at 38 ± 9 nM.
For “60 (GGGUUAGAUAGAGCUAAAAACCC; 2'-fluoro at CU, RNA at AG, backbone not given here) [compound 60]”, in that order: “++” and 26 ± 6 nM.
For “61 (GGGUUAGAUAGAUUUAAAAACCC; 2'-fluoro at CU, RNA at AG, backbone not given here) [compound 61]” the same measures were “++” and 23 ± 6 nM.
For “62 (GGGUUGGAUAGAGUUAAGAACCC; 2'-fluoro at CU, RNA at AG, backbone not given here) [compound 62]” the same measures were “++” and 29 ± 4 nM.
“63 (rGfCfUrAfCrArGrAfUrArGrArGfUfUrArArArGfUrArGfC) [compound 63]”: the “binding activity using Biacore” value in data set [1] is “++”. Besides, the half-maximal inhibitory concentration (IC50) in data set [2] (setting [5]) stood at 23 ± 3 nM.
Take “64 (rGfUfCrAfCrArGrAfUrArGrArGfUfUrArArArGfUrGrAfC) [compound 64]”: the “binding activity using Biacore” value in data set [1] is on record as “++”. The 50% inhibitory concentration (IC50) in data set [2] (setting [5]) was found to be 20 ± 5 nM.
For “66 (GGGUUAGAUCGAGUUAAAAACCC; listed as RNA, chemistry not fully specified) [compound 66]” the same measures were “+” and above 1000 nM.
For “67 (GGGUUAGAUACAGUUAAAAACCC; listed as RNA, chemistry not fully specified) [compound 67]”, the “binding activity using Biacore” value in data set [1] is recorded as “+”. In addition, the IC50 in data set [2] (setting [5]) is above 1000 nM.
For “68 (GGGUUAGAUAGUGUUAAAAACCC; listed as RNA, chemistry not fully specified) [compound 68]”, in that order: “+” and above 1000 nM.

B1: SEQ 17 (ssRNA)
RNA: GGGACGGUAGGAAUUCCGUUCGCAGAAACGAACUUUUAAAAAAUGUACGUGGGAGCACAUAGAAGAGCGGCCGC
modifications: 2'-F pyrimidines
With B1, in data set [3], the concentration for half-maximal inhibition (IC50) is 92 nM.

B2: SEQ 5 (ssRNA)
RNA: GGGACGGUAGGAAUUCCCACUUGUCUUUGAGGCAAGAAAUUGUAUUCCGAAGAAGCAUAGAAGAGCGGCCGC
modifications: 2'-F pyrimidines
As to B2, in data set [3], the 50% inhibitory concentration (IC50) turned out to be 80 nM.

B3: SEQ 9 (ssRNA)
RNA: GGGACGGUAGGAAUUCCCGAAAAGCAACAAGCUUGCUAAAAUGAUUCCGAAAAAACACAUAGAAGAGCGGCCGC
modifications: 2'-F pyrimidines
Turning to B3, the IC50 in data set [3] was determined as 273 nM.

B4: SEQ 6 (ssRNA)
RNA: GGGACGGUAGGAAUUCUACGGUCUGUGUGAAAUUGAAACACACAAAGAACAAUAGACAUAGAAGAGCGGCCGC
modifications: 2'-F pyrimidines
In the case of B4, the half-inhibitory concentration (IC50) in data set [3] stood at 456 nM.

B5: SEQ 8 (ssRNA)
RNA: GGGACGGUAGGAAUUCUACGGUCUGUGUGAAAUUGAAACACACAAAGAACAAUAAACAUAGAAGAGCGGCCGC
modifications: 2'-F pyrimidines
On to B5, for which the IC50 in data set [3] is 453 nM.

B6: SEQ 12 (ssRNA)
RNA: GGGACGGUAGGAAUUCGCCGUCAACGUUACAUAAUGUAUAUACCAGGGUAACUAAACAUAGAAGAGCGGCCGC
modifications: 2'-F pyrimidines
Take B6: in data set [3], the half-inhibitory concentration (IC50) stood at 128 nM.

B7: SEQ 11 (ssRNA)
RNA: GGGACGGUAGGAAUUCCCGACACGAAAUGUGUGAUUAAUUCCGAACAACAAAGUAACAUAGAAGAGCGGCCGC
modifications: 2'-F pyrimidines
Take B7: in data set [3], the half-maximal inhibitory concentration (IC50) came out at 145 nM.

B8: SEQ 23 (ssRNA)
RNA: GGGACGGUAGGAAUUCAUAUGUACUCCGUCCUGACAAAAUGUCAAUGACAAACGUUCAUAGAAGAGCGGCCGC
modifications: 2'-F pyrimidines
Turning to B8, in data set [3], the IC50 was 238 nM.

B9: SEQ 19 (ssRNA)
RNA: GGGACGGUAGGAAUUCCCACUGCAAUUCAGCAGAAAAAAUUCCGAAAAACACACACCAUAGAAGAGCGGCCGC
modifications: 2'-F pyrimidines
B9: the half-maximal inhibitory concentration (IC50) in data set [3] was found to be 163 nM.

B10: SEQ 15 (ssRNA)
RNA: GGGACGGUAGGAAUUCCCAGAAAAUAAAUUCCGAAGAAAACAACAAUUUUUGCAAACAUAGAAGAGCGGCCGC
modifications: 2'-F pyrimidines
Turning to B10, the half-inhibitory concentration (IC50) in data set [3] is 285 nM.

B11: SEQ 14 (ssRNA)
RNA: GGGACGGUAGGAAUUCUCGUUCCUGACAGCAUUUGAGAUAGAUUUAAACAAACGCACAUAGAAGAGCGGCCGC
modifications: 2'-F pyrimidines
With B11, the half-inhibitory concentration (IC50) in data set [3] turned out to be 61 nM.

B12: SEQ 24 (ssRNA)
RNA: GGGACGGUAGGAAUUCCCUUCAUAGUAGAAUGUUGGUUUCUACAAAAGCGACAAGCAUAGAAGAGCGGCCGC
modifications: 2'-F pyrimidines
On to B12, for which, in data set [3], the half-maximal inhibitory concentration (IC50) came out at 92 nM.

B13: SEQ 18 (ssRNA)
RNA: GGGACGGUAGGAAUUCGAACGACAAAUUAUAGAACUUCGUUUGACAUUCCACACCACAUAGAAGAGCGGCCGC
modifications: 2'-F pyrimidines
Consider B13, for which the 50% inhibitory concentration (IC50) in data set [3] was determined as 58 nM.
